Measured values reported in patent US7781469B2, “Arylacetate derivatives having isoxazole skeleton” (Shionogi & Co., Ltd., priority 2005, dated 2010).

Columns and labels:
human PPARδ (hPPARδ) = target: T1, human PPARδ (hPPARδ) (Homo sapiens, UniProt Q03181); assay: Test for transcriptional activity of PPARδ (GAL4 chimeric transcription factor luciferase reporter assay in CHO cells); type: cell-based; conditions: concentration showing 1/2 of maximum luciferase activity
T1 construct: (δ: aa 139-C-end; α: aa 167-C-end); expressed in transfected cells
T1 sequence (Q03181 139-441 limits assumed): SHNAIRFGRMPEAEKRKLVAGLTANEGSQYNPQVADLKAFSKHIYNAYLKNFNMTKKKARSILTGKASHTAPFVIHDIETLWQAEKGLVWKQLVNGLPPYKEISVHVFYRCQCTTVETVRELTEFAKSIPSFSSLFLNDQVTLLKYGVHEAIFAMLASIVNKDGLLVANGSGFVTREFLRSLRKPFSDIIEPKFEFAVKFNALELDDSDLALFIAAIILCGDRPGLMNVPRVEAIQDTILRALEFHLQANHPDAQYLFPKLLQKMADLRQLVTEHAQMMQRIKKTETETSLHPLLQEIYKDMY
Source text: Test Example 1 Test for Transcriptional Activity of PPARδ and α
A chimeric transcription factor assay, which is commonly used to detect nuclear receptor activity, was employed to measure PPAR transcriptional activity. Specifically, two plasmids, one that expresses the fusion protein of DNA binding domain of yeast transcription factor GAL4 and a ligand binding domain of a receptor, and a reporter plasmid were transiently transfected to CHO cells. The activity of the promoter containing a recognition sequence of GAL4 coded on the reporter plasmid was used as a parameter to estimate the activity of the receptor. • Plasmid: The ligand binding domain of human PPARδ (hPPARδ) or α (hPPARα) (δ: aa 139-C-end; α: aa 167-C-end) is obtained by PCR amplification using Human Universal Quick-Clone cDNA (CLONTECH). Each amplified cDNA was subcloned into pCR2.1-TOPO vector (Invitrogen) and the identity of the cDNA clones was confirmed by the DNA sequence. Then, each obtained cDNA fragment was subcloned into pBIND vector (Promega) to construct a plasmid expressing the fusion protein with DNA binding domain of yeast transcription factor GAL4. pG51uc vector (Promega) was used as a reporter plasmid. • Cell culturing and transfection: CHO cells were cultured in 10% FBS-αMEM. With a 96-well plate (Costar), CHO cells, that were dispersed with trypsin treatment, 20000 cells per well and the two plasmids obtained by the above procedure, 25 ng per well, were transfected with FuGene Reagent (Roche) by following the instruction of the manufacture. • Measurement of the transcriptional activity: CHO cells 100 μl per well, which were transfected as above, were dispensed into the wells in which a test compound dissolved in DMSO 0.5 μl was spotted in advance. After the cells and a test compound were cultured together for 24 hours in a CO2 incubator, the luciferase activity was measured by adding luciferase substrates, PicaGene LT2.0 (Toyo ink) 100 μl per well. LUMINOUS CT-9000D (DIA-IATRON) is used to measure the activity.

O=C(O)Cc1cccc(SCc2noc(-c3ccc(C(F)(F)F)cc3)c2C=NOCCF)c1 [X-6, {3-[4-(2-Fluoroethoxyiminomethyl)-5-(4-trifluoromethylphenyl)isoxazole-3-ylmethylsulfanyl]phenyl}acetic acid]
EC50 (human PPARδ (hPPARδ)): 9.8 nM

CCON=Cc1c(CSc2cc(CC(=O)O)ccc2F)noc1-c1ccc(C(F)(F)F)cc1 [X-8]
EC50 (human PPARδ (hPPARδ)): 9.8 nM

CCON=Cc1c(CSc2cccc(CC(=O)O)c2)noc1-c1ccc(C(F)(F)F)cc1 [X-25]
EC50 (human PPARδ (hPPARδ)): 12 nM | melting point: 131 to 133 °C
